Assay results reported in US8552253B2, “Screening of drug for attention deficit hyperactive disorder by using GIT1 knock-out mice as a novel ADHD mouse model” (Korea Advanced Institute of Science and Technology, priority 2011, dated 2013).

Legend:
Assay type in all cases: in vivo
GIT1 knock-out mouse [1] = assay: Open field test of GIT1 knock-out mouse; settings: peritoneal injection just before test, one time, amphetamine 4 mg/kg/day, methylphenidate 2 mg/kg/day, 60 minutes, FIGS. 3B and 3C
Procedure: (§1) In order to observe hyperactivity of mice using the GIT1 knock-out mice of the present invention, an open field test was executed in a novel environment. A GIT1 knock-out mouse and a normal mouse (wild type) as a control, each mouse being aged 2 to 5 months, were prepared. An open space was prepared using a white box which is never exposed to the mice and has a dimension of 40-40-40 cm (width-length-height). After placing each mouse in the center of the open space and video shooting a distance of the mouse for 60 minutes, results thereof including, for example, a total distance, an average movement speed, a central space invasion rate, etc., were assayed through an activity analysis program. For analysis of behavior in the open space, amphetamine (4 mg/kg/day, one time) and methylphenidate (2 mg/kg/day, one time) used as ADHD protection drugs were administered through peritoneal injection just before placing the mouse therein, followed by immediately placing the mouse in the center of the open space.

normal mouse (wild type) = assay: Open field test of normal mouse (control); settings: peritoneal injection just before test, one time, amphetamine 4 mg/kg/day, methylphenidate 2 mg/kg/day, 60 minutes
Procedure: as §1

GIT1 knock-out mouse [2] = assay: Novel object recognition test of GIT1 knock-out mouse; settings: peritoneal injection 4 mg/kg/day, 20 minutes before the sample phase, versus saline, FIG. 6C
Procedure: A novel object recognition test for assessment of object recognition and memory performance using the GIT1 knock-out mouse was performed in the same open space box as used in the open field test. The novel object recognition test included a sample phase and a test phase. During the sample phase, the mouse was allowed to detect the same two objects placed in an open space box for 10 minutes and, by video shooting the sample phase, times of observing both the objects by the mouse were recorded. As a result, it was found in FIG. 6A that a difference in object detection time between the normal mouse and the GIT1 knock-out mouse is not statistically significant. Further, one of the same two objects, for example, was replaced by a novel object not exposed to the mouse and, after 24 hours, a test period was proceeded. Such a test period was 10 minutes and a time of observing two objects by the mouse was measured during the test period. In this regard, if the nose end of the mouse contacts the object or the mouse heads for the object within 2 cm before the same, this was defined as the observation. For observing recovery of the object recognition and/or memory performance, the present inventive mouse was administered with amphetamine or saline through peritoneal injection at a dose of 4 mg/kg/day and placed in an open space box, 20 minutes before the sample phase.

GIT1 knock-out mouse [3] = assay: EEG analysis of theta section waveform in the frontal lobe of GIT1 knock-out mouse; settings: after administering amphetamine, compared to a control having saline, FIG. 7C
Procedure: A process of assaying an abnormal theta section waveform and a power spectrum density in the frontal lobe using the GIT1 knock-out mouse according to the present invention was executed after administering ketamine to a mouse through peritoneal injection at a dose of 150 mg/kg to anesthetize the mouse and fixing the head of the mouse to a stereotaxic instrument. EEG electrodes were inserted into both the right frontal lobe and the left frontal lobe. More particularly, a correct fixing position was set by calculating a correct coordinate having the front side of 2.8 mm and each lateral side of 0.8 mm with reference to the bregma, via the stereotaxic instrument. A grounding electrode was inserted into the occipital lobe. After inserting the electrodes and 1 week recovery period, the mouse was placed in an EEG chamber to measure a brain wave for 1 hour. EEG signals were amplified using a Grass model 7H polygraph (Grass Technologies) and digitalized at a sampling frequency of 2000 Hz using DIGIDATA 1320A (Molecular Devices), followed by acquisition of data using pClamp8.0 program (Axon Instruments) and analysis thereof.

Compound	movement distance of the GIT1 knock-out mouse in open space (hyperactivity) (GIT1 knock-out mouse [1])	movement distance of the normal mouse in open space (normal mouse (wild type))	object recognition ability (novel object recognition) (GIT1 knock-out mouse [2])	abnormal theta waveform in the frontal lobe (EEG) (GIT1 knock-out mouse [3])
CC(N)Cc1ccccc1 (stereo not drawn) [amphetamine]	significant recovery	considerably long distance	can be recovered	favorably recovered
COC(=O)C(c1ccccc1)C1CCCCN1 (stereo not drawn) [methylphenidate]	significant recovery	considerably long distance	–	–
